Patent publication US9764046B2, “Labeling composition for intraocular tissue, labeling method of intraocular tissue, and screening method” (CANON KABUSHIKI KAISHA, priority 2008, dated 2017)

Assays:
[1] = test system: intraocular tissue (retinal tissue incl. photoreceptor cell layer, vitreous body) of Zebrafish 7-day-old embryo; assay: Staining of intraocular tissue of Zebrafish fry by exposure to staining liquid, ocular tissue section observed by confocal microscope; format: in vivo; conditions: Zebrafish 7 dpf fry, 1 μg/mL, 1 hour exposure, fixed ocular section
[2] = Excitation and fluorescence wavelengths by fluorescence spectrometer FL4500; format: physicochemical; conditions: in nm (unit assumed)
[3] = test system: fundus (retina) of Zebrafish fry; assay: In vivo intraocular observation of the fundus of living Zebrafish fry by confocal microscope; conditions: 1 μg/mL, 1 hour exposure;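 also: +++ photoreceptor and inner retinal layers stained ++ mainly photoreceptor layer − none seen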
Experimental: In an arbitrary well of a 24-well multiplate, were put 1 mL of Staining Liquid 2 and a fry of Zebrafish, and the plate was left to stand for 1 hour. A process of removing Staining Liquid 2 in the well and replacing it by 1 mL of distilled water was then performed 3 times.
The fry was then put in a 0.7% agarose solution and placed on a slide glass to observe the fundus of the fry through a confocal microscope.

[4] = test system: photoreceptor cell layer in tissue section of the Zebrafish eyeball; assay: Stained slide of frozen tissue section of Zebrafish eyeball, co-staining with anti-Zpr-1 or anti-Zpr-3 antibody
Text: After an eyeball of a fry of Zebrafish 7-day-old embryo (7 dpf) was immobilized with a PBS solution of 4% paraformaldehyde (PFA), the solution was replaced by a PBS solution of 30% sucrose, and the eyeball was embedded in an OCT compound (product of Tissue-Tek Co.) and frozen with liquid nitrogen. The frozen sample was sliced into a 7-1 μm section by Cryostat (Tissue•Tek Cryo 3, manufactured by Sakura Finetek Japan Co., Ltd.) and extended on a MAS-coated slide glass (product of […] GLASS IND., LTD) to obtain a tissue section slide of the Zebrafish eyeball. The slide glass was treated with a blocking solution (Blocking One, product of Nakarai Co.) for 30 minutes at room temperature, and an anti-Zpr-1 antibody (which stains red and green cone cells) diluted with PBS was mounted as a primary antibody on the slide glass and treated for 12 hours at 4° C. The slide glass was then washed 3 times with PBST for 10 minutes, and a secondary antibody (Alexa 488-anti-mouse IgG antibody) and 1 μg/mL of Compound 5 were diluted with PBS and mounted on the slide glass for 1 hour at room temperature. The slide glass was washed 3 times with PBST for 10 minutes, Fluoromount G (product of Southem Biotechnology Co.) was mounted thereon, and a cover glass was placed thereon. The thus-obtained stained slide of the tissue section of the Zebrafish eye ball was observed through a confocal microscope.
A stained slide of a tissue section of a Zebrafish eye ball was prepared according to the same process as in Example 120 except that the primary antibody used in Example 120 was changed to an anti-Zpr-3 antibody (which stains rod cells), and observed through a confocal microscope.

retina of B10 mouse = assay: Staining of mouse intraocular tissue after administration to the abdominal cavity; format: in vivo; conditions: 3-month-old B10 mouse, 0.2 mL of 10 mg/mL supernatant to abdominal cavity, eyeball taken after 1 hour
Experimental: Staining compound 81 was added to an equimolar amount of a NaOH solution so as to give a concentration of 10 mg/mL, and the resultant mixture was centrifuged for 5 minutes at 14 krpm to obtain a supernatant. To an abdominal cavity of a 3-month-old B10 mouse, was administered 0.2 mL of this supernatant at one time. After 1 hour, the thus-treated animal was sacrificed under anesthesia by diethyl ether, and an eyeball thereof was taken out. The eyeball taken was embedded in an OCT compound and frozen in isopentane chilled with liquid nitrogen. This eyeball was sliced into a thickness of about 5 μm in a cryostat chilled to −20° C., and this slice was placed on a slide glass and dried to prepare a section of an ocular tissue. The thus-prepared ocular tissue section was observed through a confocal microscope (Pascal Exciter, manufactured by Zeiss Co.).

[5] = aqueous solution: 10 mg/mL DMSO solution diluted to 1/500 with purified water (Examples 1 to 94)
[6] = Comparative Examples, solvent not stated

Q: With `CCN(CC)c1ccc2cc3c(oc2c1)c(C#N)c(=N)n1c2ccccc2nc31` [Compound 5] as the compound, how does the Staining ability [1] read?
A: +++

Q: What about the “λem (fluorescence wavelength)” value [2, 5] of the same compound?
A: 577

Q: What about the “λex (excitation wavelength)” value [2, 5] of the same compound?
A: 556

Q: What about the “Result of observation (staining ability, in vivo fundus)” value (“Result of observation” for short) [3] of the same compound?
A: +++

Q: And the “Overlap of stained images with anti-Zpr-1 antibody (red and green cone cells) in the photoreceptor cell layer” value ([4]; Example 120, 1 μg/mL on frozen section)?
A: did not overlap

Q: And the “Overlap of stained images with anti-Zpr-3 antibody (rod cells) in the photoreceptor cell layer” value ([4]; Example 121, 1 μg/mL on frozen section)?
A: partially overlapped

Q: And the “Selectivity of staining within the photoreceptor cell layer” value ([4]; Examples 120 and 121)?
A: selectively stains a part of the cell types in the photoreceptor cell layer or of the cell bodies existing in the photoreceptor cell layer

Q: And the “Staining of photoreceptor cell layer and of red and green cone cells” value ([4]; conclusion from Example 120)?
A: has staining ability to the photoreceptor cell layer but does not stain the red and green cone cells in the photoreceptor cell layer

Q: What about the “Cell types stained in the photoreceptor cell layer” value ([4]; conclusion from Example 121) of the same compound?
A: has stained the rod cells and at least one kind of cell type of blue or ultraviolet cone cells

Q: Which results are given for `CCN(CC)c1ccc2cc3c(oc2c1)c(C#N)c(=O)n1c2ccccc2nc31` [Compound 6]?
A: Staining ability [1]: ++; λem (fluorescence wavelength) [2, 5]: 576; λex (excitation wavelength) [2, 5]: 555; Result of observation (staining ability, in vivo fundus) [3]: ++

Q: With `CCN(CC)c1ccc2cc(-c3nc4ccccc4s3)c(=O)oc2c1` [Compound 7] as the compound, how does the Staining ability [1] read?
A: ++

Q: What about the “λem (fluorescence wavelength)” value [2, 5] of the same compound?
A: 555

Q: And the “λex (excitation wavelength)” value [2, 5]?
A: 469

Q: What about the “Result of observation” value [3] of the same compound?
A: +++

Q: Which results are given for `CC1(C)CCN2CCC(C)(C)c3c2c1cc1cc(-c2nc4ccccc4s2)c(=O)oc31` [Compound 8]?
A: Staining ability [1]: ++; λem (fluorescence wavelength) [2, 5]: 592; λex (excitation wavelength) [2, 5]: 477; Result of observation (staining ability, in vivo fundus) [3]: +++

Q: What does the source list for `CCN(CC)c1ccc2cc(-c3nc4ccccc4[nH]3)c(=O)oc2c1` [Compound 9]?
A: Staining ability [1]: ++; λem (fluorescence wavelength) [2, 5]: 514; λex (excitation wavelength) [2, 5]: 464; Result of observation (staining ability, in vivo fundus) [3]: ++

Q: What does the source list for `CCN(CC)c1ccc2cc(-c3nc4cc(Cl)ccc4o3)c(=O)oc2c1` [Compound 11]?
A: Staining ability [1]: +++; λem (fluorescence wavelength) [2, 5]: 476; λex (excitation wavelength) [2, 5]: 422; Result of observation (staining ability, in vivo fundus) [3]: +++

Q: With `CCCN(CCC)c1ccc2cc(-c3nc4ccccc4[nH]3)c(=O)oc2c1` [Compound 12] as the compound, how does the Staining ability [1] read?
A: ++

Q: What about the “λem (fluorescence wavelength)” value [2, 5] of the same compound?
A: 509

Q: And the “λex (excitation wavelength)” value [2, 5]?
A: 463

Q: And the “Result of observation” value [3]?
A: ++

Q: For `CCN(CC)c1ccc2cc(-c3nc4ccc(C)cc4o3)c(=O)oc2c1` [Compound 13], which Staining ability [1] is on record?
A: +++

Q: What about the “λem (fluorescence wavelength)” value [2, 5] of the same compound?
A: 504

Q: What about the “λex (excitation wavelength)” value [2, 5] of the same compound?
A: 472

Q: What about the “Result of observation” value [3] of the same compound?
A: +++

Q: Which results are given for `COc1ccc2cc(N3c4ccc(/C=C5\SC(=S)N(CC(=O)O)C5=O)cc4[C@@H]4CCC[C@@H]43)ccc2c1` [Compound 36]?
A: Staining ability [1]: +++; λem (fluorescence wavelength) [2, 5]: 661; λex (excitation wavelength) [2, 5]: 566; Result of observation (staining ability, in vivo fundus) [3]: ++

Q: What does the source list for `O=C(O)CCN1C(=O)/C(=C\c2ccc3c(c2)C2CCCC2N3c2ccccc2)SC1=S` (stereo not drawn) [Compound 48]?
A: Staining ability [1]: ++; λem (fluorescence wavelength) [2, 5]: 619; λex (excitation wavelength) [2, 5]: 541; Result of observation (staining ability, in vivo fundus) [3]: ++

Q: What does the source list for `CSc1ccc(N2c3ccc(/C=C4/SC(=S)N(CC(=O)O)C4=O)cc3C3CCCC32)cc1` (stereo not drawn) [Compound 66]?
A: Staining ability [1]: +++; λem (fluorescence wavelength) [2, 5]: 636; λex (excitation wavelength) [2, 5]: 527; Result of observation (staining ability, in vivo fundus) [3]: ++

Q: Which Staining ability [1] does the source give for `CCN1c2ccc(/C=C3/SC(=S)N(CCC(=O)O)C3=O)cc2C2CCCC21` (stereo not drawn) [Compound 81] here?
A: ++

Q: What about the “λem (fluorescence wavelength)” value [2, 5] of the same compound?
A: 604

Q: And the “λex (excitation wavelength)” value [2, 5]?
A: 576

Q: What about the “Result of observation” value [3] of the same compound?
A: +++

Q: What about the “Staining ability to the retina” value (retina of B10 mouse) of the same compound?
A: has staining ability to the retina

Q: With `O=C1OC2(c3ccc(O)cc3Oc3cc(O)ccc32)c2ccccc21` [Fluorescein, fluorescein, reference compound] as the compound, how does the Staining ability [1] read?
A: −

Q: What about the “Result of observation” value [3] of the same compound?
A: −

Q: Which results are given for `CC1(C)C(/C=C/C=C/C=C/C=C2\N(CCCCS(=O)(=O)O)c3ccc4ccccc4c3C2(C)C)=[N+](CCCCS(=O)(=O)[O-])c2ccc3ccccc3c21` [ICG, indocyanine green, reference compound]?
A: Staining ability [1]: −; λem (fluorescence wavelength) [2, 6]: 811; λex (excitation wavelength) [2, 6]: 784; Result of observation (staining ability, in vivo fundus) [3]: −
